# According to the kinase profiling compilation of Christmann-Franck et al. (2016):
# Tests used:
# Assay in all cases: radiometric filter-binding kinase assay, Kinase HotSpot
# Conditions in all cases: compound 0.5 µM; ATP 10 µM
# ABL2 (human) = ABL2 (human) (UniProt P42684)
# ACVRL1 (human) = ACVRL1 (human) (UniProt P37023)
# AKT1 (human) = AKT1 (human) (UniProt P31749)
# BRSK1 (human) = BRSK1 (human) (UniProt Q8TDC3)
# CAMK2A (human) = CAMK2A (human) (UniProt Q9UQM7)
# CAMK2B (human) = CAMK2B (human) (UniProt Q13554)
# CDK2 CCNA2 (human) = CDK2 CCNA2 (human) (UniProt P24941+P20248)
# CLK1 (human) = CLK1 (human) (UniProt P49759)
# DSTYK (human) = DSTYK (human) (UniProt Q6XUX3)
# DYRK2 (human) = DYRK2 (human) (UniProt Q92630)
# DYRK4 (human) = DYRK4 (human) (UniProt Q9NR20)
# FGFR1 (human) = FGFR1 (human) (UniProt P11362)
# FGFR3 (human) = FGFR3 (human) (UniProt P22607)
# [1] = system: FLT4 (human), P35916 [Q890H]
# FRK (human) = FRK (human) (UniProt P42685)
# FYN (human) = FYN (human) (UniProt P06241)
# GRK7 (human) = GRK7 (human) (UniProt Q8WTQ7)
# ITK (human) = ITK (human) (UniProt Q08881)
# [2] = system: MAP2K6 (human), P52564 [S207E/T211E]
# MAP3K5 (human) = MAP3K5 (human) (UniProt Q99683)
# MAP4K5 (human) = MAP4K5 (human) (UniProt Q9Y4K4)
# MAPK3 (human) = MAPK3 (human) (UniProt P27361)
# MAPK8 (human) = MAPK8 (human) (UniProt P45983)
# MERTK (human) = MERTK (human) (UniProt Q12866)
# MINK1 (human) = MINK1 (human) (UniProt Q8N4C8)
# NEK11 (human) = NEK11 (human) (UniProt Q8NG66)
# NEK2 (human) = NEK2 (human) (UniProt P51955)
# NUAK1 (human) = NUAK1 (human) (UniProt O60285)
# PAK4 (human) = PAK4 (human) (UniProt O96013)
# PAK7 (human) = PAK7 (human) (UniProt Q9P286)
# PHKG1 (human) = PHKG1 (human) (UniProt Q16816)
# PTK2B (human) = PTK2B (human) (UniProt Q14289)
# ROCK2 (human) = ROCK2 (human) (UniProt O75116)
# RPS6KA6 KD1 KD2 (human) = RPS6KA6 KD1 KD2 (human) (UniProt Q9UK32)
# STK10 (human) = STK10 (human) (UniProt O94804)
# STK11 (human) = STK11 (human) (UniProt Q15831)
# STK24 (human) = STK24 (human) (UniProt Q9Y6E0)
# STK25 (human) = STK25 (human) (UniProt O00506)
# [3] = target: TYK2 JH1 catalytic (human) (UniProt P29597)
# WNK2 (human) = WNK2 (human) (UniProt Q9Y3S1)
# ZAP70 (human) = ZAP70 (human) (UniProt P43403)
# MAPK14 (human) = MAPK14 (human) (UniProt Q16539)
# STK25 (human), sequence (O00506 whole entry, looked up): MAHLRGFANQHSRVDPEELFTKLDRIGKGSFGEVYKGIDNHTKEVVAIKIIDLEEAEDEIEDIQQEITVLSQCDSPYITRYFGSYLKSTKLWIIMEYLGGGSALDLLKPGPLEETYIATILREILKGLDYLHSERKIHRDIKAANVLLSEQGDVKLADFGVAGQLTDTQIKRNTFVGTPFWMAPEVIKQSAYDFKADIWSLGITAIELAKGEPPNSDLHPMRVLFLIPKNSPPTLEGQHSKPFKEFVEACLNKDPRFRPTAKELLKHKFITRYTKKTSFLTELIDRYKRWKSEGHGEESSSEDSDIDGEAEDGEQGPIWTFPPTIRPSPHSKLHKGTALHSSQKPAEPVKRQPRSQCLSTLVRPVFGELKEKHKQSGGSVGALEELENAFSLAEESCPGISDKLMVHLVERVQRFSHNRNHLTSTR
# NEK11 (human), sequence (Q8NG66 whole entry, looked up): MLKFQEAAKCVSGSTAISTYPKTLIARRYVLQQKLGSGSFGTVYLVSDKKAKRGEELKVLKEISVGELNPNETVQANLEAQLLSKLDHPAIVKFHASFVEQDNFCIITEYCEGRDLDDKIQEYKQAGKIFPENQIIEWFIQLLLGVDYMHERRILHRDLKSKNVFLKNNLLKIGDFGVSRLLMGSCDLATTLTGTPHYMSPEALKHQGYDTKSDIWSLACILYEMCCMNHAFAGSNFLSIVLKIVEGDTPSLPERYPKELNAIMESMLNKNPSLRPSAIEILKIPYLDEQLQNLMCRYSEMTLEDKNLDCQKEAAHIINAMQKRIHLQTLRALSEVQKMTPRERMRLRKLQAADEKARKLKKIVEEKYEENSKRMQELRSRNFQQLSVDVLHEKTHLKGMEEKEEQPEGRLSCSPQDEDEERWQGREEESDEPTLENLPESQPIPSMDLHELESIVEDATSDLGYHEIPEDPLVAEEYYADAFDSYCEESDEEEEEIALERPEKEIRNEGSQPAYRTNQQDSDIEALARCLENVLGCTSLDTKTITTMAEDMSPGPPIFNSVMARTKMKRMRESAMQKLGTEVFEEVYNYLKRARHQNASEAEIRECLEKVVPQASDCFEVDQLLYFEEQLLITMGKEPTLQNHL
# ITK (human), sequence (Q08881 whole entry, looked up): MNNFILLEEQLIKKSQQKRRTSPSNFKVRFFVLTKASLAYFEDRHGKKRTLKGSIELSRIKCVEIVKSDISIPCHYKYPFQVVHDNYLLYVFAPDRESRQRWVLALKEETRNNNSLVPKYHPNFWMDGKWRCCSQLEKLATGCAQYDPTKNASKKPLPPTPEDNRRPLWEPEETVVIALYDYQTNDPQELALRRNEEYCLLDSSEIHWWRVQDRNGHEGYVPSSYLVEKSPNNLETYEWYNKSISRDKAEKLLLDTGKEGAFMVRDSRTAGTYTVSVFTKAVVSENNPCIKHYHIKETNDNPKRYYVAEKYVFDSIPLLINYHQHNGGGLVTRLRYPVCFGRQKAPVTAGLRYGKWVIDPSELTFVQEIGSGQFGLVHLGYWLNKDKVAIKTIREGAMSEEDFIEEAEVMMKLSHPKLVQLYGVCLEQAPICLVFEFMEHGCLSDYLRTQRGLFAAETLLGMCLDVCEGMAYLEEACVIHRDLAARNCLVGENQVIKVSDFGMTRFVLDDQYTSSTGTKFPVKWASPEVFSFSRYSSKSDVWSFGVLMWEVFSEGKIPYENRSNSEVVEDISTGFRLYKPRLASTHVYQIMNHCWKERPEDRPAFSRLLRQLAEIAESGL
# CAMK2B (human), sequence (Q13554 whole entry, looked up): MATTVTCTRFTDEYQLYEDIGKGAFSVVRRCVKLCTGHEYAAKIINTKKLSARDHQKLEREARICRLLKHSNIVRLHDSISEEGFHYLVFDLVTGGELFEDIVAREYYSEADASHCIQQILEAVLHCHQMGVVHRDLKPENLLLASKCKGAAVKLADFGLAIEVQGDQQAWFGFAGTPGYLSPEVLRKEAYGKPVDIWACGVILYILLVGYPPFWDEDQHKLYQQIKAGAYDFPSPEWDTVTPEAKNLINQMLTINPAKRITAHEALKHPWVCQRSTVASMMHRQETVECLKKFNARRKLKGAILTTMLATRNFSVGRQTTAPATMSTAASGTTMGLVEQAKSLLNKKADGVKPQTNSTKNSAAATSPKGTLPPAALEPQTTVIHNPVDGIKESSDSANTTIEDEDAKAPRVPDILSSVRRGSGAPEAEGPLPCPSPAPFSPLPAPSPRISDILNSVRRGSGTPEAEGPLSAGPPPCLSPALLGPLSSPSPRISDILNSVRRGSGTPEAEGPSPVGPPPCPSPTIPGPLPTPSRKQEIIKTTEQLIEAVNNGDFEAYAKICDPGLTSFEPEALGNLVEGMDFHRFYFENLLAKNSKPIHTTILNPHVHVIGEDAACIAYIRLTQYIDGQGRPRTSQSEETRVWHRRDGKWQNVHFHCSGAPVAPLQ
# CLK1 (human), sequence (P49759 whole entry, looked up): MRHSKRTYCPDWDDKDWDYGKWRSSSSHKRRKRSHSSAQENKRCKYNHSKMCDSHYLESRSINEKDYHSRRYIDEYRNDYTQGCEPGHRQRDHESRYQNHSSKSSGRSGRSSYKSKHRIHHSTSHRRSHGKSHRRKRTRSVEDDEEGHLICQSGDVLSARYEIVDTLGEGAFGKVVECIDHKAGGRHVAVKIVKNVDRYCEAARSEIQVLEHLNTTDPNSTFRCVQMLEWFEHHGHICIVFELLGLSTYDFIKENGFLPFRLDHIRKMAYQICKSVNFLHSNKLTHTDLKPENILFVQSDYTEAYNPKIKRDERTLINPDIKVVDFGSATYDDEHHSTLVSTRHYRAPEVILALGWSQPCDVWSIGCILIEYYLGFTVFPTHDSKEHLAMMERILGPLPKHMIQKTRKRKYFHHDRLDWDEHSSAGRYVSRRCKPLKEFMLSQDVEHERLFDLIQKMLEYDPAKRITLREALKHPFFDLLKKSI
# MAPK8 (human), sequence (P45983 whole entry, looked up): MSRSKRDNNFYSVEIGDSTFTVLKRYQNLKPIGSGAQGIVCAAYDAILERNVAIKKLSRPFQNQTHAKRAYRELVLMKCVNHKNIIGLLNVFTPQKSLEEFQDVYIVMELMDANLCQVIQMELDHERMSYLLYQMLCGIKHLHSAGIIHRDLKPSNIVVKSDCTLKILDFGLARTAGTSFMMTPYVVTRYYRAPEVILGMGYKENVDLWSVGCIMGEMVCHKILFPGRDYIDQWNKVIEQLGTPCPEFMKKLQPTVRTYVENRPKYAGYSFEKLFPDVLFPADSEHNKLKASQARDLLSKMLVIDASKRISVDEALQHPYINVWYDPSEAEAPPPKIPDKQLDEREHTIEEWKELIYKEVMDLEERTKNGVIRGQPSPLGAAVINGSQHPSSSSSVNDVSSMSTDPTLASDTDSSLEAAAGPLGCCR
# PHKG1 (human), sequence (Q16816 whole entry, looked up): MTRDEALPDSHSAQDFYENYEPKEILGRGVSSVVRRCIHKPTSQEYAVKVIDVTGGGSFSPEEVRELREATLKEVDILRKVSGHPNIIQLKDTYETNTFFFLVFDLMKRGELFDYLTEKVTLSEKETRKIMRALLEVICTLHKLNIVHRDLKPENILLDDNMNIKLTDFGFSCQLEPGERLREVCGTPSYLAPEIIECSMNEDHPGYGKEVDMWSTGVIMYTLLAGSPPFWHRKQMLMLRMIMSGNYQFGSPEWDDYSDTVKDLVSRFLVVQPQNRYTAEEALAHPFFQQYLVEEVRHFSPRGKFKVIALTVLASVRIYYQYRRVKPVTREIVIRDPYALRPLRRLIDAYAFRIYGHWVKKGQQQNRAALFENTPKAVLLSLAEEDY
# PAK7 (human), sequence (Q9P286 whole entry, looked up): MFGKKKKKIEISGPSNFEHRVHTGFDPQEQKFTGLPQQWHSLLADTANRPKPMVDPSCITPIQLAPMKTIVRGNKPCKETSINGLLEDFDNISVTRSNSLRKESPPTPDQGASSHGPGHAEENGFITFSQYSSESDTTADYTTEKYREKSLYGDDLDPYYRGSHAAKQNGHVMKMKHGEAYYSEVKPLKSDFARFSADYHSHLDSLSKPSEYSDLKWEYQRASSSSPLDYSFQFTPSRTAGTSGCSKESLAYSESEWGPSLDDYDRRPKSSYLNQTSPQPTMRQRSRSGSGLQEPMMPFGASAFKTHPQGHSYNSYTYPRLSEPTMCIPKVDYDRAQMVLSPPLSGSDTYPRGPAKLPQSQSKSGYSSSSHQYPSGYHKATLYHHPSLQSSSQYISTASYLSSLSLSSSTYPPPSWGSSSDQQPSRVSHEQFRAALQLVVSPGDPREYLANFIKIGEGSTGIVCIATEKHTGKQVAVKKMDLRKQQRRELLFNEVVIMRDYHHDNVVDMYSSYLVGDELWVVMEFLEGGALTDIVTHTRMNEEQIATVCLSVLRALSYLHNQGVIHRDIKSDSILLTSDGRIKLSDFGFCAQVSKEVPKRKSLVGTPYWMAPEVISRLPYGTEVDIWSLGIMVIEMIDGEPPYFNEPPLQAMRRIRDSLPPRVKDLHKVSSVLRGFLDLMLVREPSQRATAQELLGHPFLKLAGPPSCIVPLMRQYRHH
# CAMK2A (human), sequence (Q9UQM7 whole entry, looked up): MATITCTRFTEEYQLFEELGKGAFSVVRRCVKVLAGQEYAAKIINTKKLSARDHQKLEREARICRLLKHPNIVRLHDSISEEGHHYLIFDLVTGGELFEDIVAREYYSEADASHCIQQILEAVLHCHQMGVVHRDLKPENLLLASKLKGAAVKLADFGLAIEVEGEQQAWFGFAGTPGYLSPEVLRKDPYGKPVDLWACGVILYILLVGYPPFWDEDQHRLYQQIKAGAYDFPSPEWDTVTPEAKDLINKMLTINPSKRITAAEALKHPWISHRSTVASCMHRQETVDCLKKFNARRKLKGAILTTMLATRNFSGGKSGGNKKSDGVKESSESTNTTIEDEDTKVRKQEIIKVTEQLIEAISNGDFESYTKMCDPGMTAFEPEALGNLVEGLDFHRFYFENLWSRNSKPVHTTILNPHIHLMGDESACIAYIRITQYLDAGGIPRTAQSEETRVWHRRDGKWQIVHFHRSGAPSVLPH
smiles,measurement,setting,value
O=C1Nc2ccc(Br)cc2/C1=C\c1cc2c([nH]1)CCCC2,residual activity,ABL2 (human),82.6%
same,residual activity,ACVRL1 (human),103%
same,residual activity,AKT1 (human),99.8%
same,residual activity,BRSK1 (human),80.8%
same,residual activity,CAMK2A (human),93.3%
same,residual activity,CAMK2B (human),85.8%
same,residual activity,CDK2 CCNA2 (human),90.8%
same,residual activity,CLK1 (human),97.2%
same,residual activity,DSTYK (human),93.1%
same,residual activity,DYRK2 (human),90.8%
same,residual activity,DYRK4 (human),102%
same,residual activity,FGFR1 (human),76.7%
same,residual activity,FGFR3 (human),55.8%
same,residual activity,[1],56.1%
same,residual activity,FRK (human),91%
same,residual activity,FYN (human),87.5%
same,residual activity,GRK7 (human),85.2%
same,residual activity,ITK (human),87.5%
same,residual activity,[2],110%
same,residual activity,MAP3K5 (human),101%
same,residual activity,MAP4K5 (human),17.7%
same,residual activity,MAPK3 (human),95%
same,residual activity,MAPK8 (human),107%
same,residual activity,MERTK (human),81.2%
same,residual activity,MINK1 (human),26.4%
same,residual activity,NEK11 (human),111%
same,residual activity,NEK2 (human),87.9%
same,residual activity,NUAK1 (human),27.7%
same,residual activity,PAK4 (human),76.8%
same,residual activity,PAK7 (human),85.4%
same,residual activity,PHKG1 (human),60.2%
same,residual activity,PTK2B (human),82.4%
same,residual activity,ROCK2 (human),92.8%
same,residual activity,RPS6KA6 KD1 KD2 (human),78.6%
same,residual activity,STK10 (human),65.5%
same,residual activity,STK11 (human),88.7%
same,residual activity,STK24 (human),94.2%
same,residual activity,STK25 (human),102%
same,residual activity,[3],86%
same,residual activity,WNK2 (human),101%
same,residual activity,ZAP70 (human),93.9%
COc1ccc(Cl)cc1NC(=O)Nc1cc(C)nc2ccccc12,residual activity,ABL2 (human),91.2%
same,residual activity,ACVRL1 (human),98.6%
same,residual activity,AKT1 (human),95.8%
same,residual activity,BRSK1 (human),92.8%
same,residual activity,CAMK2A (human),101%
same,residual activity,CAMK2B (human),103%
same,residual activity,CDK2 CCNA2 (human),98.6%
same,residual activity,CLK1 (human),97.6%
same,residual activity,DSTYK (human),98.8%
same,residual activity,DYRK4 (human),98.9%
same,residual activity,FGFR1 (human),86.1%
same,residual activity,FGFR3 (human),96.3%
same,residual activity,[1],100%
same,residual activity,FRK (human),98.4%
same,residual activity,FYN (human),100%
same,residual activity,GRK7 (human),101%
same,residual activity,ITK (human),96%
same,residual activity,[2],89.9%
same,residual activity,MAP3K5 (human),101%
same,residual activity,MAP4K5 (human),100%
same,residual activity,MAPK14 (human),98.5%
same,residual activity,MAPK3 (human),94.6%
same,residual activity,MAPK8 (human),104%
same,residual activity,MERTK (human),93.3%
same,residual activity,MINK1 (human),88.7%
same,residual activity,NEK11 (human),94.6%
same,residual activity,NEK2 (human),106%
same,residual activity,PAK4 (human),77.9%
same,residual activity,PAK7 (human),85.1%
same,residual activity,PHKG1 (human),102%
same,residual activity,PTK2B (human),88.9%
same,residual activity,ROCK2 (human),96.7%
same,residual activity,STK10 (human),90.9%
same,residual activity,STK11 (human),103%
same,residual activity,STK24 (human),81.6%
same,residual activity,STK25 (human),101%
same,residual activity,[3],99.7%
same,residual activity,WNK2 (human),104%
same,residual activity,ZAP70 (human),94.9%
O=C1C(Cl)=C(N2C(=O)CCC2=O)C(=O)c2ccccc21,residual activity,ABL2 (human),106%
same,residual activity,ACVRL1 (human),105%
same,residual activity,AKT1 (human),103%
same,residual activity,BRSK1 (human),96.9%
same,residual activity,CAMK2A (human),89.6%
same,residual activity,CAMK2B (human),106%
same,residual activity,CDK2 CCNA2 (human),109%
same,residual activity,CLK1 (human),103%
same,residual activity,DSTYK (human),95.4%
same,residual activity,DYRK2 (human),98.6%
same,residual activity,DYRK4 (human),94.1%
same,residual activity,FGFR1 (human),99.5%
same,residual activity,FGFR3 (human),106%
same,residual activity,[1],102%
same,residual activity,FRK (human),103%
same,residual activity,FYN (human),111%
same,residual activity,GRK7 (human),109%
same,residual activity,ITK (human),87.5%
same,residual activity,[2],107%
same,residual activity,MAP3K5 (human),99.1%
same,residual activity,MAP4K5 (human),90.4%
same,residual activity,MAPK14 (human),88.1%
same,residual activity,MAPK3 (human),99.3%
same,residual activity,MAPK8 (human),122%
same,residual activity,MERTK (human),90.3%
same,residual activity,MINK1 (human),95.6%
same,residual activity,NEK11 (human),101%
same,residual activity,NEK2 (human),88.6%
same,residual activity,NUAK1 (human),105%
same,residual activity,PAK4 (human),114%
same,residual activity,PAK7 (human),108%
same,residual activity,PHKG1 (human),96.5%
same,residual activity,PTK2B (human),105%
same,residual activity,ROCK2 (human),91.5%
same,residual activity,RPS6KA6 KD1 KD2 (human),99.9%
same,residual activity,STK11 (human),99.8%
same,residual activity,STK24 (human),87%
same,residual activity,STK25 (human),107%
same,residual activity,[3],102%
same,residual activity,WNK2 (human),108%
same,residual activity,ZAP70 (human),93.8%
